Measured values published in patent publication US4598076A, “2-pyrrolin-3-carbonitril-derivatives, pharmaceutical compositions containing them and their anti-inflammatory and ulcer protective activity” (Warner-Lambert Company, priority 1982, dated 1986).

Assays:
[1] = test system: carrageenin oedema in rats; assay: Antiphlogistic action against carrageenin oedema in rats; format: in vivo, rats (SIV 50); conditions: for inhibition of the paw volume: 3 hours after carrageenin; for antiphlogistic properties (in words): carrageenin oedema
Protocol: The experimental animals used were male rats (SIV 50), fasting for 20 hours, with a body weight of 110 to 160 g. Water was available ad libitum. After determination of the initial value of the paw volume of the right hind leg, the test substance was administered intragastrally as a suspension in 1% tragacanth slurry. 10 animals were used per dosage group. The volume administered was 20 ml./kg. body weight. The paw volume was measured by means of mercury displacement. 60 minutes after intragastral administration of the test substances, 0.1 ml. of a 1% carrageenin solution was injected subplantarily into the right hind paw. 1 and 3 hours after injection of the carrageenin, the paw volume of the oedematous paw was measured. The increase of the paw volume of the test substance-treated animals after 3 hours was compared with that of the control animals and the inhibition of the paw oedema by the test substance was calculated therefrom as a percentage.

[2] = Acute toxicity on mice (LD50, 7 day observation); conditions: mouse, in vivo, po; male NMRI mice, intragastral, 7 day observation
Protocol: (§1) The determination of the acute toxicity was carried out on male mice (NMRI) with a body weight of from 18 to 23 g. All the experimental animals fasted for 20 hours before commencement of the experiment. Water was available ad libitum. Each dosage grouping contained 4 animals. The dosage sequence was logarithmic. The test compounds were administered intragastrally as suspensions in 1% tragacanth slurry. The volume administered was 20 ml./kg. body weight.
(§2) The following Table gives the LD50 values after a 7 day observation period of the animals: […]

[3] = test system: stomach ulcers in rats induced by indomethacin; assay: Ulcer-protective action on stomach ulcers in rats induced by indomethacin; format: in vivo, rats (SIV 50); conditions: with 40 mg/kg indomethacin, 5 hours
Protocol: The experimental animals used were male rats (SIV 50), fasted for 20 hours, with a body weight of 170 to 220 g. Water was available ad libitum. The animals were simultaneously given intragastrally 40 mg./kg. indomethacin and the test substance in the form of a suspension in 0.8% "Methocel". The control animals only received the corresponding dosage of indomethacin. 10 animals were used for each experimental group. The volume administered was 10 ml./kg. body weight. 5 hours after administration, the animals were sacrificed. After removal of the stomach and opening along the curvatura major, this was investigated with a stereomagnifier for the presence of ulcers. […] The ulcer index of the animals treated with indomethacin and test substance was compared with that of the control animals which had only been treated with indomethacin and the ulcer inhibition calculated therefrom as a percentage.

[4] = test system: male mice (NMRI); assay: Acute toxicity on mice (LD50, 7 day observation); conditions: mouse, in vivo
Protocol: as §1, §2

[5] = test system: gastric juice secretion in rats; assay: Influence on gastric juice secretion in rats (Shay, pyloric ligature); format: in vivo, rats (SIV 50); conditions: 4 hours after pyloric ligature
Protocol: According to the method described by H. Shay et al. (Gastroenterology, 5, 43-61/1945), male rats (SIV 50) with a body weight of 160 to 200 g. were fasted for 48 hours before commencement of the experiment. Water was available to the animals ad libitum. The test substances were administered intragastrally as a suspension in 1% tragacanth slurry. The volume administered was 10 ml./kg. body weight. 8 animals were used per experimental group. One hour after administration of the substance, a pyloric ligature was applied under light ether narcosis. 4 hours after this intervention, the animals were sacrificed. The extirpated stomach was opened up along the curvatura major and the volume of the secretion was measured and compared with the data obtained from the control group.

Structure (SMILES): N#CC1=C(SCCN2CCCC2)NC(=O)C1(c1ccccc1)c1cccs1 (stereo not drawn) [Example 6f, 5-oxo-4-phenyl-2-(2-pyrrolidinoethylthio)-4-(2-thienyl)-2-pyrroline-3-carbonitrile]
- inhibition of the paw volume ([1]; 125 mg/kg intragastrally): 24%
- inhibition of the paw volume ([1]; 250 mg/kg intragastrally): 45%
- LD50 at 168 h [2]: > 1600 mg/kg

Structure (SMILES): CN(C)CCSC1=C(C#N)C(c2ccc(N(C)C)cc2)(c2cccnc2)C(=O)N1 (stereo not drawn) [Example 4g, 2-(2-dimethylaminoethylthio)-4-(4-dimethylaminophenyl)-5-oxo-4-(3-pyridyl)-2-pyrroline-3-carbonitrile]
- inhibition of the paw volume ([1]; 50 mg/kg intragastrally): 25%
- inhibition of the paw volume ([1]; 100 mg/kg intragastrally): 61%
- LD50 at 168 h [2]: 1600 mg/kg

Structure (SMILES): CSC1=C(C#N)C(c2ccc(N(C)C)cc2)(c2cccnc2)C(=O)N1 (stereo not drawn) [Example 4i, 4-(4-dimethylaminophenyl)-2-methylthio-5-oxo-4-(3-pyridyl)-2-pyrroline-3-carbonitrile]
- ulcer inhibition ([3]; 50 mg/kg intragastral): 88%
- compatibility (in words) [4]: good compatibility
- LD50 at 168 h [2]: > 1600 mg/kg

Structure (SMILES): CN(C)c1ccc(C2(c3cccnc3)C(=O)NC(SCCN3CCCCC3)=C2C#N)cc1 (stereo not drawn) [Example 4d, 4-(4-dimethylaminophenyl)-2-(2-piperidinoethylthio)-5-oxo-4-(3-pyridyl)-2-pyrroline-3-carbonitrile]
- inhibition of gastric juice secretion ([5]; 125 mg/kg intragastral): 48%
- inhibition of gastric juice secretion ([5]; 250 mg/kg intragastral): 76%
- inhibition of the paw volume ([1]; 50 mg/kg intragastrally): 26%
- inhibition of the paw volume ([1]; 125 mg/kg intragastrally): 83%
- LD50 at 168 h [2]: 1600 mg/kg

Structure (SMILES): CCN(CC)CCCSC1=C(C#N)C(c2ccc(N(C)C)cc2)(c2cccnc2)C(=O)N1 (stereo not drawn) [Example 4k, 2-(3-diethylaminopropylthio)-4-(4-dimethylaminophenyl)-5-oxo-4-(3-pyridyl)-2-pyrroline-3-carbonitrile]
- ulcer inhibition ([3]; 50 mg/kg intragastral): 33%
- ulcer inhibition ([3]; 100 mg/kg intragastral): 94%
- LD50 at 168 h [2]: 300 mg/kg

Structure (SMILES): N#CC1=C(SCCN2CCOCC2)NC(=O)C1(c1ccccc1)c1cccs1 (stereo not drawn) [Example 6c, 2-(2-morpholinoethylthio)-5-oxo-4-phenyl-4-(2-thienyl)-2-pyrroline-3-carbonitrile]
- inhibition of the paw volume ([1]; 125 mg/kg intragastrally): 6%
- inhibition of the paw volume ([1]; 250 mg/kg intragastrally): 45%
- LD50 at 168 h [2]: > 1600 mg/kg

Structure (SMILES): CN(C)c1ccc(C2(c3cccnc3)C(=O)NC(SCCN3CCCC3)=C2C#N)cc1 (stereo not drawn) [Example 4e, 4-(4-dimethylaminophenyl)-2-(2-pyrrolidinoethylthio)-5-oxo-4-(3-pyridyl)-2-pyrroline-3-carbonitrile]
- inhibition of the paw volume ([1]; 25 mg/kg intragastrally): 37%
- inhibition of the paw volume ([1]; 50 mg/kg intragastrally): 70%
- antiphlogistic properties (in words) [1]: most effective compounds
- LD50 at 168 h [2]: > 1600 mg/kg

Structure (SMILES): CCN(CC)CCSC1=C(C#N)C(c2ccc(N(C)C)cc2)(c2cccnc2)C(=O)N1 (stereo not drawn) [Example 4a, 2-(2-diethylaminoethylthio)-4-(4-dimethylaminophenyl)-5-oxo-4-(3-pyridyl)-2-pyrrolin-3-carbonitril]
- ulcer inhibition ([3]; 125 mg/kg intragastral): 84%
- inhibition of gastric juice secretion ([5]; 62.5 mg/kg intragastral): 45%
- inhibition of gastric juice secretion ([5]; 125 mg/kg intragastral): 64%
- inhibition of gastric juice secretion ([5]; 250 mg/kg intragastral): 73%
- inhibition of the paw volume ([1]; 50 mg/kg intragastrally): 59%
- inhibition of the paw volume ([1]; 100 mg/kg intragastrally): 77%
- antiphlogistic properties (in words) [1]: most effective compounds
- LD50 at 168 h [2]: 800 mg/kg

Structure (SMILES): CN(C)c1ccc(C2(c3cccnc3)C(=O)NC(SCCN3CCOCC3)=C2C#N)cc1 (stereo not drawn) [Example 4b, 4-(4-dimethylaminophenyl)-2-(2-morpholinoethylthio)-5-oxo-4-(3-pyridyl)-2-pyrroline-3-carbonitrile]
- inhibition of gastric juice secretion ([5]; 50 mg/kg intragastral): 24%
- inhibition of gastric juice secretion ([5]; 100 mg/kg intragastral): 63%
- inhibition of gastric juice secretion ([5]; 200 mg/kg intragastral): 76%
- LD50 at 168 h [2]: 400 mg/kg
